Earlier results on 1 substance are cited in PMC6470953, “Symmetrical Modification of Minimized Dermaseptins to Extend the Spectrum of Antimicrobials with Endotoxin Neutralization Potency” (International Journal of Molecular Sciences, 2019).

Series [1] concerns S. faecalis ATCC 29212. Particulars: cited from earlier work. The source says: (§1) Table 2 MICs and therapeutic index of the peptides. | column: KL4A6 [9]
Series [2] deals with human red blood cells (hRBCs). The note with it: lowest peptide concentration that induces 5% hemolysis; cited from earlier work.
Source text: as §1

For series [3], the system named is S. pullorum C79-13. Particulars: cited from earlier work.
Source text: as §1

Series [4] deals with Gram-negative and Gram-positive bacteria. Particulars: MIC >128 μM counted as 256 μM; cited from earlier work.
Source text: as §1

Series [5] concerns P. aeruginosa ATCC 27853. The note with it: cited from earlier work.
Source text: as §1

In series [6] the test system is E. coli ATCC25922. Particulars: cited from earlier work.
Source text: as §1

For series [7], the system named is S. aureus ATCC 29213. The note with it: cited from earlier work.
Source text: as §1

Series [8] has as its system B. subtilis CMCC 63501. The note with it: cited from earlier work.
Source text: as §1

In series [9] the test system is S. epidermidis ATCC 12228. Particulars: cited from earlier work.
Source text: as §1

Series [10] deals with E. coli UB1005. The note with it: cited from earlier work.
Source text: as §1

The subject of series [11] is S. typhimurium ATCC 14028. The note with it: cited from earlier work.
Source text: as §1

As to LLKAAAKAAAKLL-NH2 [KL4A6], the MIC in series [1] was 16 µM; in [3], >128 µM; in [5], >128 µM; in series [6], 2 µM; in series [7] it was >128 µM; in [8], 32 µM. Moreover, the results for the MIC in series [9], in series [10] and in [11] were 128 µM, 32 µM and 128 µM, respectively. Moreover, the “MHC5 (minimum hemolysis concentration 5%)” value in [2] was >256 µM. In series [4], the “GM (geometric mean of MIC values)” value was 59.3 µM.
